Assay [1] can be described thus: viability of uninfected HEp-2 cells – cell-based, HTS, cytotoxicity control for RSV inhibitor project, dose response (AID 2410). The assay is classed as functional. The conditions noted are these: human respiratory syncytial virus.
Assay [2] is described as follows: NIH3T3 cell viability loss – ATP luminescence, mouse fibroblasts, counter-screen, dose response (AID 2010).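 Note: cells exposed to compound for about 90 hours before reading.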 The assay is classed as functional, cell-based. (In general: Counterscreens check selectivity or assay interference.)
Assay [3] can be described thus: Trypanosoma cruzi growth suppression in host cells – NIH3T3 host cells, beta-gal luminescence, confirmation (AID 2044).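 Note: intracellular parasites grown in NIH/3T3 mouse fibroblasts as host cells; luminescent beta-galactosidase reporter signal from transgenic T. cruzi replicating inside host cells; inhibitors lower the luminescence signal.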 Type of assay: functional, cell-based.
Assay [4] concerns Streptococcus. Kind of assay: GAS UMAA2166 growth inhibition – luminescence, BacTiterGlo, counter-screen for streptokinase expression inhibitor project, dose response (AID 1915).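 Note: potency for reduction of bacterial viability or growth.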 The assay is classed as functional, organism-based.
Assay [5] relates to Streptococcus sp. 'group A'. As to the kind of experiment: Streptococcus pyogenes SK(-)GAS viability under kanamycin – luminescence, BacTiterGlo, confirmation, counter-screen for streptokinase expression inhibitor project, dose response (AID 1900). The assay is classed as functional, organism-based.
In assay [6] the target is Cytochrome P450 3A4 (Homo sapiens, UniProt P08684).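 Note: CYP3A4 tested as one member of a cytochrome P450 panel screen.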
Chain of Cytochrome P450 3A4 (P08684 whole entry): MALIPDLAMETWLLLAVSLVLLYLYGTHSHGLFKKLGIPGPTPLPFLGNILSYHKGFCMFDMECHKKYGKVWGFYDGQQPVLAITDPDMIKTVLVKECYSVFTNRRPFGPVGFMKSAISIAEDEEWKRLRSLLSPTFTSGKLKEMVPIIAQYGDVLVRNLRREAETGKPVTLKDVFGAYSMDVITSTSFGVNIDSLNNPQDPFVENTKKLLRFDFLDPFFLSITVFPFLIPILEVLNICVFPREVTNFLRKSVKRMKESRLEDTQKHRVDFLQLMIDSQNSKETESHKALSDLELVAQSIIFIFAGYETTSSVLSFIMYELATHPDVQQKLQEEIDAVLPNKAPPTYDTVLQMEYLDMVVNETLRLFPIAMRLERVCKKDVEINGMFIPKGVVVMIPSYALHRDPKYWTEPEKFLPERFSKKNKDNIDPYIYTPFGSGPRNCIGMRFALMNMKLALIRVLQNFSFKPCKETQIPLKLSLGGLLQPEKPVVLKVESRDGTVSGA
For assay [7], the target named is Paired box protein Pax-8 (Homo sapiens, UniProt Q06710). As to the kind of experiment: PAX8 transcriptional activity inhibition in RMG-I – RMG-I cells, luciferase, cherry-pick, dose response (AID 687027).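 Note: luciferase reporter driven by Pax8 target thyroperoxidase promoter measured by SteadyGlo luminescence.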 Type of assay: functional, cell-based.
Chain of Paired box protein Pax-8 (Q06710 whole entry): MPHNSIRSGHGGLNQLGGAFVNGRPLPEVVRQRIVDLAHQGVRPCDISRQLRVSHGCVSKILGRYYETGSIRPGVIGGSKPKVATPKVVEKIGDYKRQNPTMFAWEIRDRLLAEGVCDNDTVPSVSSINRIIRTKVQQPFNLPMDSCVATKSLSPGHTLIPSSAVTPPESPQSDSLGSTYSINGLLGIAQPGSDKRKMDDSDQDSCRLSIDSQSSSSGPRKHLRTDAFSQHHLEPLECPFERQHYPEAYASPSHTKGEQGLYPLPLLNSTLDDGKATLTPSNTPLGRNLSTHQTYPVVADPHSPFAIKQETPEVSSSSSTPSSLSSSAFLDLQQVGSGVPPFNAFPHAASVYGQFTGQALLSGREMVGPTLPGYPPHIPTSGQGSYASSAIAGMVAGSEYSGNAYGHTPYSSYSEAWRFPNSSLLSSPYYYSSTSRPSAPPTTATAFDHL
Assay [8] is described as follows: Luminescence Cell-Based Dose Retest to Confirm Inhibitors of Cancer Stem Cells. [Related pubchem assays (depositor defined):AID2717, AID2721]. Type of assay: functional. The conditions noted are these: Homo sapiens.

Several values for one entry are separate records, joined by “and”; a condition that tells them apart may be missing. Equal values may be shown once. Activity calls are given as the source filed them. Bounds are passed on as bounds.

In general, CC50 refers to the concentration that lowers cell viability or growth by half. For the compound `CCN(CC(=O)Nc1c(C(=O)OC)[nH]c2ccc(C)cc12)c1ccc2c(c1)OCO2`, in assay [1], the CC50 was > 50 µM (active).
Broadly, the EC50 is the concentration that produces a half-maximal response. Regarding `CCC1CCc2sc(C(=O)NC3CCN(Cc4ccccc4)CC3)cc2C1` (centres undefined), the EC50 in assay [2] is 5.09 µM (active); in assay [3] it was 0.48 µM (active).
On the same counts, the results for `CC1=C(C(N)=O)C(c2cccnc2)n2nc(-c3cccc(C)c3)nc2N1` (centres undefined) are > 60 µM (not active) and > 60 µM (not active).
As to `O=C(Nc1ccccc1Cl)c1cccc(COc2cc(Cl)ccc2Cl)c1`, in assay [1], the CC50 was > 50 µM (active).
For the compound `Cc1cccc(NC(=O)c2[nH]cnc2C(=O)N[C@@H](Cc2ccccc2)C(=O)OC(C)(C)C)c1`, the EC50 in assay [4] is 3.87 µM (active); in assay [5], 2.46 µM (active).
For `COc1ccc2c(c1)CCC1=C2N=C(S)NC1c1ccc(N(C)C)cc1` (centres undefined), the values for the EC50 in assay [2] and in assay [3] were > 60 µM (not active) and 2.62 µM (active), respectively.
`O=c1c2ccc([N+](=O)[O-])cc2ncn1CCOc1ccc(Cl)cc1`: the EC50 in assay [2] was > 30 µM (not active); in assay [3], 0.145 µM (active).
One may read the AC50 as the concentration giving half of the maximal activity seen. `CCN(CC)C(=O)N[C@H]1C[C@H]2c3cccc4[nH]cc(c34)C[C@@H]2N(C)C1`: in assay [6], the half-maximal activity concentration (AC50) is 10 µM (inconclusive).
As for `C[C@@H]1CN([C@H](C)CO)C(=O)c2cc(NC(=O)Nc3ccc(C(F)(F)F)cc3)ccc2O[C@@H](C)CCCCO[C@H]1CN(C)Cc1ccccc1`, in assay [7], the AC50 was 12.2 µM (active).
In the case of `CN(C)Cc1c[nH]c2ccccc12` [GRAMINE], the AC50 in assay [6] is 3.16 µM (inconclusive).
On the same count and under the same terms, under `Cc1c(Cl)cnc(NC(=O)COC(=O)CCS(=O)(=O)c2ccccc2)c1Cl` stands 15.8 µM (inconclusive).
For `COC(=O)C1=CN(Cc2ccc(OC)c(OC)c2)C=C(C(=O)OC)C1c1cccc(O)c1`, the figures for the EC50 in assay [2] and in assay [3] were > 60 µM (not active) and 0.311 µM (active), respectively.
With `Cc1cccc(-n2cc(-c3ccccc3)c3c(N4CCOCC4)ncnc32)c1`, the AC50 in assay [8] is 5.24 µM (active).
As to `COc1ccccc1CNc1ccnc(-c2ccccc2Cl)n1`, the AC50 in assay [6] was 2.51 µM (inconclusive).
In the case of `C=CCn1c2ccccc2c2nnc(SCc3nc(O)[nH]c3C(=O)CCCCC(=O)OCC)nc21`, the CC50 in assay [1] is > 50 µM (active).
With `COc1cccc2cc(-c3csc(CCn4nc(C)cc4C)n3)c(=O)oc12`, in assay [1], the CC50 was 41.8 µM (active).
For the compound `COc1ccccc1-c1c(C)nn2c(N)c(-c3ccccc3)cnc12`, the half-maximal cytotoxic concentration (CC50) in assay [1] is 24.2 µM (active).
Take `COC(=O)c1cc(=O)n(Cc2cccs2)/c(=N/c2ccccc2)s1`: in assay [8], the AC50 was 5.15 µM (active).
For the compound `Cc1nn2c(N3CCN(C)CC3)cc(C(C)(C)C)nc2c1-c1ccccc1`, the EC50 in assay [2] is 4.77 µM (active); in assay [3], 0.145 µM (active).
In the case of `COc1ccc(Br)cc1C(=O)Nc1ccccc1N1CCN(C(=O)c2ccccc2)CC1`, the CC50 in assay [1] was 29 µM (active). Also, the results for the EC50 in assay [2] and in assay [3] were > 60 µM (not active) and 1.46 µM (active), respectively.
On to `CON(C)C(=O)c1nnc2c3ccccc3n(S(=O)(=O)c3ccc(C)cc3)c2n1`, for which, in assay [6], the AC50 was 3.98 µM (inconclusive) and 3.16 µM (inconclusive).
Consider `Clc1ccc(-c2csc(N/N=C\c3cccnc3)n2)cc1`, for which the EC50 was > 60 µM (not active) in assay [2] and 1.84 µM (active) in assay [3].
The corresponding values for `Cc1ccc(CN2CCCC(C(=O)c3sccc3C)C2)o1` (centres undefined) are > 60 µM (not active) and 0.719 µM (active).
Regarding `Cn1nnnc1Sc1ncnc2scc(-c3cccc4c3sc3ccccc34)c12`, the figures for the AC50 in assay [7] and in assay [8] were 3.89 µM (active) and 1.25 µM (active), respectively.
For the compound `O=C(NCC1CCCO1)c1ccc([N+](=O)[O-])s1` (centres undefined), the EC50 in assay [2] was > 30 µM (not active); in assay [3] it was 0.728 µM (active).
Regarding `C/C(=N\c1ccc(C)cc1C)c1sc2ccccc2c1O`, in assay [1], the CC50 was 17.8 µM (active).
In the case of `Nc1ncc2c(n1)-c1cc(Cl)ccc1SC2`, the EC50 was > 60 µM (not active) in assay [2] and 1.55 µM (active) in assay [3].
On to `CC(=O)NNc1cccc(Cl)n1`, for which the AC50 in assay [8] is > 195 µM (inactive).
For `O=C(c1cccc(F)c1)N1CCN(c2cc(N3CCCCC3)c(F)cc2[N+](=O)[O-])CC1`, in assay [1], the CC50 is 22.2 µM (active).
Same read-out and setting: the result for `CC12CCC3c4ccc(O)cc4CCC3C1CCC2=O` (centres undefined) reads 29.6 µM (active).
With `Cc1ccc(CN2CCN(Cc3ccc(-n4cccn4)cc3C)CC2CCO)cc1` (centres undefined), the EC50 was > 30 µM (not active) in assay [2] and 0.651 µM (active) in assay [3].
On to `Cc1ccc(Nc2cc(C)nc(-c3ccccc3O)n2)cc1`, for which the 50% cytotoxic concentration (CC50) in assay [1] is 14.6 µM (active).
Turning to `COc1ccc(-c2nc3cnc(Nc4cccc(OC)c4)nc3n(Cc3cccs3)c2=O)cc1`, the AC50 in assay [6] is 6.31 µM (inconclusive).
On to `COc1ccc(NC(=O)N2CC3(CCN(C(=O)c4ccncc4)CC3)C2)cc1`, for which, in assay [6], the AC50 is 15.8 µM (inconclusive).
Still for that read-out and setting: under `CC(=O)OC[C@@H]1O[C@H](CCO/N=C(\C)CCN2CCCc3nc(C)c(C)cc32)C=C[C@@H]1OC(C)=O` stands 3.98 µM (inconclusive).
For `CCCCCn1c(=O)[nH]c2cc(C(=O)NCCCN(C)Cc3ccccc3)ccc2c1=O`, the EC50 in assay [2] was > 60 µM (inconclusive); in assay [3], 0.911 µM (active).
On the same counts, the results for `COCCNC(=O)CCC1CCN(Cc2ccc(-c3ccccc3)cc2)CC1` are > 60 µM (not active) and 1.77 µM (active).
Consider `COc1ccc(N2CCN(C(S)=Nc3cc(C)ccc3C)CC2)cc1`, for which the AC50 in assay [6] was 3.16 µM (inconclusive).
Turning to `C[C@H](CO)N1C[C@H](C)[C@@H](CN(C)S(=O)(=O)c2ccc(F)cc2)Oc2ccc(NC(=O)Nc3ccc(C(F)(F)F)cc3)cc2C1=O`, the AC50 in assay [8] was 4.25 µM (active).
On the same count and under the same terms, under `S=C(Nc1ccccc1)Nc1nc2ccccc2n1CCOc1ccc(Br)cc1` stands 11.6 µM (active).
As to `CC(C)c1ccc(C(=O)NCCCN(C)C)cc1`, the EC50 was > 60 µM (not active) in assay [2] and 1.27 µM (active) in assay [3].
As for `CCN(CC(=O)Nc1ccc(S(=O)(=O)N2CCCCC2)cc1)Cc1ccccc1`, the CC50 in assay [1] is 28 µM (active).
On to `O=Cc1ccc(Oc2cc(-c3ccccc3)nc(-c3ccccc3)n2)cc1`, for which the AC50 in assay [8] is 3.14 µM (active).
For `O=C(Nc1cccc([N+](=O)[O-])c1)C12CC3CC(C1)CC(n1cnc([N+](=O)[O-])n1)(C3)C2`, the figures for the EC50 in assay [2] and in assay [3] were > 60 µM (not active) and 0.102 µM (active), respectively.
On to `COc1ccc(/N=C2\SC(CC(=O)Nc3ccccc3F)C(=O)N2Cc2ccco2)cc1` (centres undefined), for which, in assay [1], the half-maximal cytotoxic concentration (CC50) is 25.1 µM (active).
Regarding `CCCCn1c(=N)n(CC(=O)C(C)(C)C)c2ccccc21`, the EC50 was > 60 µM (not active) in assay [2] and 5.54 µM (active) in assay [3].
`CCS(=O)(=O)N1Cc2ccccc2CC1C(=O)Nc1nnc(SCc2c(Cl)cccc2Cl)s1` (centres undefined): the AC50 in assay [7] is 34.9 µM (active).
As to `CC[C@H]1CC2CN3CCc4c([nH]c5c([C@H]6C[C@H]7[C@H](CC)CN(C)[C@@H](Cc8c6[nH]c6ccccc86)[C@H]7C(=O)OC)c(OC)ccc45)C(C(=O)OC)(C2)C13`, the AC50 in assay [8] was 1.99 µM (active).
Still for that read-out and setting: under `COc1ccc(/C=N/NC(=O)CCn2cnc(-c3ccccc3)c2-c2ccccc2)cc1OC` stands 0.404 µM (active).

The values above are taken from ChEMBL document CHEMBL1201862, “PubChem BioAssay data set” (2004).
